Data from ChEMBL document CHEMBL1131204, “Flavonoid derivatives as adenosine receptor antagonists: a comparison of the hypothetical receptor binding site based on a comparative molecular field analysis model” (J Med Chem, 1998).
“And” between values parts separate entries of the source, which are not always exact repeats. Equal values may be shown once.

How the values were obtained:
[1] = target: T1, Adenosine receptor A1 (Rattus norvegicus) (UniProt P25099); assay: Ability to displace [3H]N6-phenylisopropyladenosine binding from adenosine A1 receptor.
T1 sequence (whole entry): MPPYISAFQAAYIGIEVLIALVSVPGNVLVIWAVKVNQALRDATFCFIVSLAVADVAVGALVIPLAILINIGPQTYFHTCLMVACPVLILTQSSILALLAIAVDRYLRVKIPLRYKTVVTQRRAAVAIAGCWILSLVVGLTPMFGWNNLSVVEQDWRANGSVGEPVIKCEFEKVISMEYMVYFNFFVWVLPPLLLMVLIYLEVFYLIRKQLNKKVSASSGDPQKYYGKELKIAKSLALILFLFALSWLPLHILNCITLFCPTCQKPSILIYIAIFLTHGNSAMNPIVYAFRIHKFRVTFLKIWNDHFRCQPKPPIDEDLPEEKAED

[2] = target: Adenosine receptor A2a (Rattus norvegicus) (UniProt P30543); assay: Ability to displace [3H]-CGS- 21680 binding from adenosine A2A receptor.
Chain of Adenosine receptor A2a (Rattus norvegicus) (P30543 whole entry): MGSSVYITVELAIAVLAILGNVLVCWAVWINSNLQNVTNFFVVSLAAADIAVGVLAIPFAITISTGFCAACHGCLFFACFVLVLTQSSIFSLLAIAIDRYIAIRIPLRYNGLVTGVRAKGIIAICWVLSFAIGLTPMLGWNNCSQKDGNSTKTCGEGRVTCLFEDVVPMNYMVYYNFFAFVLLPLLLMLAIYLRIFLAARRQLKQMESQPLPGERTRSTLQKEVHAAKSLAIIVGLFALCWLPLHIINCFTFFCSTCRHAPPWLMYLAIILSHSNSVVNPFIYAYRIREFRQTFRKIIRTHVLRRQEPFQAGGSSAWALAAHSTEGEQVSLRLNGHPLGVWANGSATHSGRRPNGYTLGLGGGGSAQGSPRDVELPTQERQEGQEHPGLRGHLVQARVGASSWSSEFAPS

[3] = target: T2, Adenosine receptor A3 (Homo sapiens) (UniProt P0DMS8); assay: Ability to displace [125I]-AB-MECA binding from adenosine A3 receptor.
T2 sequence (whole entry): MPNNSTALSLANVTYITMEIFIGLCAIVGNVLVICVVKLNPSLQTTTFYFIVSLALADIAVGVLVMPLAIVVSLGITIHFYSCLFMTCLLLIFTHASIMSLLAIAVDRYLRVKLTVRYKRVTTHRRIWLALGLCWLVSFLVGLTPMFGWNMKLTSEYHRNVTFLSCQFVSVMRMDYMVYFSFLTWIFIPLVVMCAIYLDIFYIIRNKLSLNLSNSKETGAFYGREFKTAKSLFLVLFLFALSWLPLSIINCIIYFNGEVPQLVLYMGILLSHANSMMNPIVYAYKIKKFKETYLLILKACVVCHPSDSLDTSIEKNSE

SMILES | pKi(uM) [1] | pKi(uM) [2] | pKi(uM) [3]
O=c1cc(-c2ccccc2)oc2cc(O)ccc12 | -0.48 | -0.43 | 
O=C1CC(c2ccccc2)Oc2ccccc21 (stereo unspecified) |  |  | -1.21
O=c1cc(-c2ccccc2)oc2cccc(O)c12 |  | -0.79 | 
COc1ccc(-c2cc(=O)c3ccc(O)cc3o2)cc1OC | -1.27 | -1.54 | 
Cc1ccc(-c2oc3ccc(Cl)cc3c(=O)c2Cl)c(C(C)C)c1 |  |  | 0.25
CC(=O)Oc1cc(OC(C)=O)c2c(c1)OC(c1ccccc1)C(OC(C)=O)C2=O (stereo unspecified) |  | -1.75 | 
COc1ccc2c(c1)C(=O)C(O)C(/C=C/c1ccccc1)O2 (stereo unspecified) |  |  | -1.32
COc1c(O)cc2oc(-c3ccc(O)cc3)cc(=O)c2c1O | -0.21 | -0.88 | 
COc1c2ccoc2cc2oc(C=O)cc(=O)c12 |  |  | -1.95
O=c1c(Cl)c(-c2ccccc2)oc2ccccc12 |  | -1.4 | -1.06
COc1cc(OC)c2c(=O)c(OC)c(-c3ccccc3)oc2c1 | 0.29 | -0.81 | 0.08 and -0.09
O=C1CC(c2ccc(O)cc2)Oc2ccccc21 (stereo unspecified) | -1.06 |  | -1.36
CCOc1c2ccoc2cc2oc(/C=C/c3ccccc3)cc(=O)c12 | -1.55 | -1.53 | -0.06
COc1ccc2oc(C#Cc3ccccc3)c(O)c(=O)c2c1 |  |  | -1.38
COc1cc(OC)c(-c2oc3ccccc3c(=O)c2O)c(OC)c1 | -0.86 |  | -1.7
COc1ccc(-c2cc(=O)c3c(OC)c(OC)c(OC)cc3o2)cc1 | -0.11 |  | -0.65
CCOc1ccc(-c2oc3cc(OCC)cc(OCC)c3c(=O)c2OCC)c(OCC)c1 |  | -1.42 | -0.86
O=c1cc(-c2ccc(O)cc2)oc2cc(O)cc(O)c12 | -0.48 | -0.88 | 
O=c1cc(-c2ccccc2)oc2c1ccc1ccccc12 | 0.1 | -0.12 | 
O=c1cc(-c2ccccc2)oc2ccccc12 | -0.52 | -0.54 | -1.23
COc1ccc(-c2oc3cc(OC)cc(OC)c3c(=O)c2OC)cc1 | -0.03 |  | -0.53

SMILES | pKi(uM) [1] | pKi(uM) [2] | pKi(uM) [3]
COc1ccc2c(c1)C(=O)C(O)C(C#Cc1ccccc1)O2 (stereo unspecified) | -1.7 |  | -0.91
O=C1c2ccccc2OC(c2ccccc2O)C1O (stereo unspecified) | -1.96 |  | 
COc1c2ccoc2cc2oc(C)cc(=O)c12 |  | -1.63 | -1.78
COc1c2ccoc2cc2oc(/C=N/c3ccccc3)cc(=O)c12 |  |  | -0.96
COc1ccc(-c2cc(=O)c3c(O)cc(C)cc3o2)cc1 | -0.53 | -1.45 | -1.7
O=c1c(O)c(-c2ccc(O)c(O)c2)oc2cc(O)cc(O)c12 |  | -0.84 | 
COc1ccc2c(=O)c(O)c(-c3ccc(O)c(O)c3)oc2c1 |  |  | -0.14
O=c1c(Cl)c(-c2ccccc2)oc2ccc(Cl)cc12 |  | -1.74 | 
CCOc1cc(OCC)c2c(=O)c(OCC)c(-c3ccccc3)oc2c1 | 0.22 | -0.52 | 0.44
COc1cc(OC)c2c(=O)c(OC)c(-c3cc(OC)c(OC)c(OC)c3)oc2c1 |  |  | -0.82
CCOc1ccc(-c2oc3cc(OCC)cc(O)c3c(=O)c2OCC)c(OCC)c1 |  |  | -0.68
CCOc1cc(O)c2c(=O)c(OCC)c(-c3ccccc3)oc2c1 |  | -1.8 | 0.13
CCOc1c(-c2c(C)cc(C)cc2C)oc2ccc(Cl)cc2c1=O |  |  | -0.72
CCOc1c2ccoc2cc2oc(/C=C/C=C/c3ccccc3)cc(=O)c12 |  | -2.22 | -1.66
COc1c2ccoc2cc2oc(/C=C/c3ccccc3)cc(=O)c12 | -1.51 | -1.06 | -0.92
O=C1CC(c2ccccc2O)Oc2ccccc21 (stereo unspecified) | -0.42 | -1.25 | -0.78
COC1(OC)Cc2oc(-c3ccc(O)cc3O)c(CC=C(C)C)c(=O)c2C(O)=C1/C=C/C(C)C |  |  | -0.66
COc1cc2oc(-c3ccc(O)cc3)cc(=O)c2c(O)c1OC | -0.08 | -0.48 | -0.5
COc1cc(O)c2c(c1)OC(c1ccc(O)cc1)CC2=O (stereo unspecified) | -0.91 | -1.55 | -0.53
O=c1c(O)c(-c2ccccc2)oc2cc(O)cc(O)c12 |  |  | -0.23
CC(=O)Oc1cc(OC(C)=O)c2c(=O)c(OC(C)=O)c(-c3ccccc3)oc2c1 | -1.06 |  | -1.24
